# According to BindingDB's records for patent US11414404 (Array BioPharma Inc., 2022):
# Target: Serine/threonine-protein kinase B-raf [V600E] (Homo sapiens, UniProt P15056, V600E)
# Test: BRAF V600E and V600K Enzyme Assay
# Excerpt: A competitive displacement assay was configured for B-Raf that monitors the amount of a fluorescently-tagged tracer bound to B-Raf via TR-FRET from an anti-tag Eu-labeled antibody also bound to B-Raf.
# Serine/threonine-protein kinase B-raf [V600E], sequence (P15056 2-766 V600E limits assumed): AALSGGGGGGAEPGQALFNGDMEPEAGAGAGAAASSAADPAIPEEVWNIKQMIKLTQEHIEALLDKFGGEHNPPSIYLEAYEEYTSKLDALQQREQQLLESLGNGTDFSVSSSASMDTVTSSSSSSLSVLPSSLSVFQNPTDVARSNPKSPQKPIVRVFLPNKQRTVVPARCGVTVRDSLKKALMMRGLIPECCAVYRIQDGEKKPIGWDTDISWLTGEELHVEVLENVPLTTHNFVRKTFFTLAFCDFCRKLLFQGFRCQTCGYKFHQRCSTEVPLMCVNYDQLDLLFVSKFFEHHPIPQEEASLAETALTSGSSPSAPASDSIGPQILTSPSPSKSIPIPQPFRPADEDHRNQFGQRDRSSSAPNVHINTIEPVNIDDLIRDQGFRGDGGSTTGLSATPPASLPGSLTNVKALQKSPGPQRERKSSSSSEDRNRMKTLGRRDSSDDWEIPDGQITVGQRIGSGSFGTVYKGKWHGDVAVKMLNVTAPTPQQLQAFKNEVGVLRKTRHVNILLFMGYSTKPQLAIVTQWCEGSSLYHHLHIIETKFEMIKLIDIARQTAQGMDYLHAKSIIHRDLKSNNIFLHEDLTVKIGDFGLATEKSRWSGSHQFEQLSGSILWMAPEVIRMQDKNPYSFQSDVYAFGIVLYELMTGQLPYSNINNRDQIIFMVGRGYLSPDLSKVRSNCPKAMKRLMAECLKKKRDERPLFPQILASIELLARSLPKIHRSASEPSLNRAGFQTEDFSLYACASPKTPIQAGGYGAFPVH
row,IC50,SMILES
1,63.4 nM,"Cc1c(Nc2c(F)ccc(NS(=O)(=O)CC(C)C)c2Cl)ccc2ncn(C)c(=O)c12 [US11414404, Ex. # 51]"
2,41.7 nM,"Cc1c(Nc2c(F)cnc(NS(=O)(=O)CC3CC3)c2Cl)ccc2ncn(C)c(=O)c12 [US11414404, Ex. # 47]"
3,66.1 nM,"Cc1c(Nc2c(F)ccc(NS(=O)(=O)CC3CC3)c2Cl)ccc2ncn(C)c(=O)c12 [US11414404, Ex. # 50]"
